Reference: patent US4443436A, “C-20-Modified macrolide derivatives of the macrolide antibiotics tylosin, desmycosin, macrocin, and lactenocin” (Eli Lilly and Company, priority 1982, dated 1984)
Values after ≈ are worked out from the molar mass of the structure shown. Like-named read-outs stand apart in the source and are kept apart here.

Experiments:
[1] = tested on: Staphylococcus aureus X1.1; test: MIC, standard agar-dilution assay, Staphylococcus aureus X1.1; format: cell-based
[2] = tested on: Staphylococcus aureus V41; test: MIC, standard agar-dilution assay, Staphylococcus aureus V41; format: cell-based
[3] = tested on: Staphylococcus aureus X400; test: MIC, standard agar-dilution assay, Staphylococcus aureus X400; format: cell-based
[4] = tested on: Staphylococcus aureus S13E; test: MIC, standard agar-dilution assay, Staphylococcus aureus S13E; format: cell-based
[5] = tested on: Staphylococcus epidermidis EPI1; test: MIC, standard agar-dilution assay, Staphylococcus epidermidis EPI1; format: cell-based
[6] = tested on: Staphylococcus epidermidis EPI2; test: MIC, standard agar-dilution assay, Staphylococcus epidermidis EPI2; format: cell-based
[7] = tested on: Streptococcus pyogenes C203; test: MIC, standard agar-dilution assay, Streptococcus pyogenes C203; format: cell-based
[8] = tested on: Streptococcus pneumoniae Park I; test: microbe, parasite or virus in culture; format: cell-based
[9] = tested on: Streptococcus Group D X66; test: MIC, standard agar-dilution assay, Streptococcus Group D X66; format: cell-based
Streptococcus Group 9960 = test: MIC, standard agar-dilution assay, Streptococcus Group 9960; format: cell-based; conditions: Streptococcus Group 9960, agar dilution
[10] = tested on: Haemophilus influenzae Holt; test: MIC, standard agar-dilution assay, Haemophilus influenzae Holt; format: cell-based
[11] = tested on: Haemophilus influenzae R252; test: MIC, standard agar-dilution assay, Haemophilus influenzae R252; format: cell-based; conditions: Haemophilus influenzae R252, ampicillin-resistant strain
Staphylococcus aureus = test: MIC, broth-dilution microtiter test, Staphylococcus aureus; format: cell-based
Description: (§1) The MIC's in Table X were obtained using conventional broth-dilution microtiter tests.

Streptococcus bovis 80 = test: MIC, broth-dilution microtiter test, Streptococcus bovis 80; format: cell-based
Description: as §1

[12] = tested on: Pasteurella multocida 17E; test: MIC, broth-dilution microtiter test, Pasteurella multocida 17E; format: cell-based
Description: as §1

[13] = tested on: Pasteurella multocida 60A; test: MIC, broth-dilution microtiter test, Pasteurella multocida 60A; format: cell-based
Description: as §1

[14] = tested on: Pasteurella hemolytica 22C; test: MIC, broth-dilution microtiter test, Pasteurella hemolytica 22C; format: cell-based
Description: as §1

Mycoplasma gallisepticum = test: MIC, broth-dilution microtiter test, Mycoplasma gallisepticum; format: cell-based
Description: as §1

Mycoplasma synoviae = test: MIC, broth-dilution microtiter test, Mycoplasma synoviae; format: cell-based
Description: as §1

Mycoplasma hyorhinis = test: MIC, broth-dilution microtiter test, Mycoplasma hyorhinis; format: cell-based
Description: as §1

[15] = tested on: Streptococcus pyogenes C203; test: In vivo protection of mice experimentally infected with S. pyogenes C203; conditions: mice, doses given 1 and 4 hours post-infection; for ED50: Streptococcus pyogenes
Experimental: The C-20 modified derivatives of this invention have shown in vivo antimicrobial activity against experimentally-induced infections in laboratory animals. When two doses of test compound were administered to mice experimentally infected with S. pyogenes C203, the activity observed was measured as an ED50 value [effective dose in mg/kg to protect 50% of the test animals: see Warren Wick, et al., J. Bacteriol. 81, 233-235 (1961)].

[16] = Staphylococcus epidermidis, EPI1
[17] = Staphylococcus epidermidis, EPI2
[18] = Streptococcus Group D X66, agar dilution, read-out: MIC
[19] = Pasteurella multocida 60A, avian isolate, broth-dilution microtiter, read-out: MIC
[20] = Pasteurella hemolytica 22C, broth-dilution microtiter, read-out: MIC
[21] = C203, oral, read-out: ED50, Oral
[22] = Pasteurella multocida 17E, bovine isolate, broth-dilution microtiter, read-out: MIC
[23] = Mycoplasmoides gallisepticum, Mycoplasma gallisepticum, broth-dilution microtiter, read-out: MIC
[24] = Mycoplasma hyorhinis, broth-dilution microtiter, read-out: MIC

CCC1OC(=O)CC(O)C(C)C(OC2OC(C)C(OC3CC(C)(O)C(O)C(C)O3)C(N(C)C)C2O)C(C)CC(C)C(=O)C=CC(C)=CC1COC1OC(C)C(O)C(O)C1OC (centres unmarked) [Compound 54, 20-Deformylmacrocin]
MIC ([1]; Staphylococcus aureus, X1.1): 2 µg/mL (≈ 2.29 µM)
MIC ([2]; Staphylococcus aureus, V41): 1 µg/mL (≈ 1.14 µM)
MIC ([3]; Staphylococcus aureus, X400): 2 µg/mL (≈ 2.29 µM)
MIC ([4]; Staphylococcus aureus, S13E): 2 µg/mL (≈ 2.29 µM)
MIC [5, 16]: 2 µg/mL (≈ 2.29 µM)
MIC [6, 17]: 2 µg/mL (≈ 2.29 µM)
MIC ([7]; Streptococcus pyogenes, C203): 2 µg/mL (≈ 2.29 µM)
MIC ([8]; Streptococcus pneumoniae Park I, agar dilution, read-out: MIC): 64 µg/mL (≈ 73.2 µM)
MIC [9, 18]: 128 µg/mL (≈ 146 µM)
MIC (Streptococcus Group 9960; GROUP9960, read-out: MIC): 28 µg/mL (≈ 32 µM)
MIC ([10]; Haemophilus influenzae Holt, ampicillin-sensitive strain, read-out: MIC): > 128 µg/mL
MIC ([11]; read-out: MIC): > 128 µg/mL
MIC (Staphylococcus aureus): 3.12 µg/mL (≈ 3.57 µM)
MIC (Streptococcus bovis 80; Streptococcus equinus, 80): 6.25 µg/mL (≈ 7.15 µM)
MIC ([12]; Pasteurella multocida, 17E): > 50 µg/mL
MIC [13, 19]: > 50 µg/mL
MIC [14, 20]: > 50 µg/mL
MIC (Mycoplasma gallisepticum; Mycoplasmoides gallisepticum): 0.78 µg/mL (≈ 0.892 µM)
MIC (Mycoplasma synoviae; Mycoplasmopsis synoviae): 1.56 µg/mL (≈ 1.78 µM)
MIC (Mycoplasma hyorhinis; Mycoplasma): 25 µg/mL (≈ 28.6 µM)
ED50 [15, 21]: 31 mg/kg

CCC1OC(=O)CC(O)C(C)C(OC2OC(C)C(OC3CC(C)(O)C(O)C(C)O3)C(N(C)C)C2O)C(CCOC(=O)COc2ccccc2)CC(C)C(=O)C=CC(C)=CC1COC1OC(C)C(O)C(OC)C1OC (centres unmarked) [Compound 11, 20-DH-20-O-(Phenoxyacetyl)tylosin]
MIC ([1]; Staphylococcus aureus, X1.1): 0.5 µg/mL (≈ 0.475 µM)
MIC ([2]; Staphylococcus aureus, V41): 0.5 µg/mL (≈ 0.475 µM)
MIC ([3]; Staphylococcus aureus, X400): 1 µg/mL (≈ 0.95 µM)
MIC ([4]; Staphylococcus aureus, S13E): 0.5 µg/mL (≈ 0.475 µM)
MIC [5, 16]: 0.5 µg/mL (≈ 0.475 µM)
MIC [6, 17]: 0.5 µg/mL (≈ 0.475 µM)
MIC ([7]; Streptococcus pyogenes, C203): 0.5 µg/mL (≈ 0.475 µM)
MIC ([8]; Streptococcus pneumoniae): 0.5 µg/mL (≈ 0.475 µM)
MIC [9]: 8 µg/mL (≈ 7.6 µM)
MIC (Streptococcus Group 9960; GROUP9960, read-out: MIC): 8 µg/mL (≈ 7.6 µM)
MIC ([10]; Haemophilus influenzae): > 128 µg/mL
MIC ([11]; read-out: MIC): > 128 µg/mL
MIC (Staphylococcus aureus; broth-dilution microtiter, read-out: MIC): 1.56 µg/mL (≈ 1.48 µM)
MIC (Streptococcus bovis 80; Streptococcus equinus, Streptococcus bovis 80, broth-dilution microtiter, read-out: MIC): 3.12 µg/mL (≈ 2.97 µM)
MIC [12, 22]: > 50 µg/mL
MIC [13, 19]: > 50 µg/mL
MIC [14, 20]: > 50 µg/mL
MIC (Mycoplasma gallisepticum; [23]): 1.56 µg/mL (≈ 1.48 µM)
MIC (Mycoplasma synoviae; Mycoplasmopsis synoviae, Mycoplasma synoviae, broth-dilution microtiter, read-out: MIC): 3.12 µg/mL (≈ 2.97 µM)
MIC (Mycoplasma hyorhinis; [24]): > 50 µg/mL

CCOC(=O)c1ccc(OCCC2CC(C)C(=O)C=CC(C)=CC(COC3OC(C)C(O)C(OC)C3OC)C(CC)OC(=O)CC(O)C(C)C2OC2OC(C)C(O)C(N(C)C)C2O)cc1 (centres unmarked) [Compound 38, 20-DH-20-O-[p-(Ethoxycarbonyl)phenyl]desmycosin]
MIC ([1]; Staphylococcus aureus, X1.1): 0.5 µg/mL (≈ 0.542 µM)
MIC ([2]; Staphylococcus aureus, V41): 0.5 µg/mL (≈ 0.542 µM)
MIC ([3]; Staphylococcus aureus, X400): 0.5 µg/mL (≈ 0.542 µM)
MIC ([4]; Staphylococcus aureus, S13E): 0.5 µg/mL (≈ 0.542 µM)
MIC [5, 16]: 0.5 µg/mL (≈ 0.542 µM)
MIC [6, 17]: 0.25 µg/mL (≈ 0.271 µM)
MIC ([7]; Streptococcus pyogenes, C203): 0.5 µg/mL (≈ 0.542 µM)
MIC ([8]; Streptococcus pneumoniae): 1 µg/mL (≈ 1.08 µM)
MIC [9, 18]: 8 µg/mL (≈ 8.68 µM)
MIC (Streptococcus Group 9960; GROUP9960, read-out: MIC): 16 µg/mL (≈ 17.4 µM)
MIC ([10]; Haemophilus influenzae): 16 µg/mL (≈ 17.4 µM)
MIC (Staphylococcus aureus): 0.78 µg/mL (≈ 0.846 µM)
MIC (Streptococcus bovis 80; Streptococcus equinus, 80): 0.78 µg/mL (≈ 0.846 µM)
MIC [12, 22]: 25 µg/mL (≈ 27.1 µM)
MIC ([13]; Pasteurella multocida, 60A): 50 µg/mL (≈ 54.2 µM)
MIC ([14]; Pasteurella, 22C): 50 µg/mL (≈ 54.2 µM)
MIC (Mycoplasma gallisepticum; [23]): 0.39 µg/mL (≈ 0.423 µM)
MIC (Mycoplasma synoviae; Mycoplasmopsis synoviae): 1.56 µg/mL (≈ 1.69 µM)
MIC (Mycoplasma hyorhinis; [24]): 25 µg/mL (≈ 27.1 µM)
ED50 ([15]; C203, sc, subcutaneous, read-out: ED50, Subcutaneous): > 10 mg/kg
ED50 [15, 21]: 35 mg/kg

CCC1OC(=O)CC(O)C(C)C(OC2OC(C)C(O)C(N(C)C)C2O)C(CCOc2ccc(CN3CCCCCC3)cc2)CC(C)C(=O)C=CC(C)=CC1COC1OC(C)C(O)C(OC)C1OC (centres unmarked) [Compound 42, 20-DH-20-O-[p-(Hexahydroazepin-1-ylmethyl)phenyl]desmycosin]
MIC ([1]; Staphylococcus aureus X1.1, agar dilution): 0.5 µg/mL (≈ 0.52 µM)
MIC ([2]; Staphylococcus aureus V41, penicillin-resistant strain, agar dilution): 0.1 µg/mL (≈ 0.104 µM)
MIC ([3]; Staphylococcus aureus X400, methicillin-resistant strain, agar dilution): 1 µg/mL (≈ 1.04 µM)
MIC ([4]; Staphylococcus aureus S13E, agar dilution): 0.5 µg/mL (≈ 0.52 µM)
MIC ([5]; Staphylococcus epidermidis EPI1, agar dilution): 0.5 µg/mL (≈ 0.52 µM)
MIC ([6]; Staphylococcus epidermidis EPI2, agar dilution): 0.25 µg/mL (≈ 0.26 µM)
MIC ([7]; Streptococcus pyogenes C203, agar dilution): 0.5 µg/mL (≈ 0.52 µM)
MIC ([9]; Streptococcus Group D X66, agar dilution): 8 µg/mL (≈ 8.32 µM)
MIC (Streptococcus Group 9960): 8 µg/mL (≈ 8.32 µM)
MIC ([10]; Haemophilus influenzae Holt, ampicillin-sensitive strain, agar dilution): 32 µg/mL (≈ 33.3 µM)
MIC ([11]; agar dilution): 32 µg/mL (≈ 33.3 µM)
MIC (Staphylococcus aureus; broth-dilution microtiter): 1.56 µg/mL (≈ 1.62 µM)
MIC (Streptococcus bovis 80; Streptococcus bovis 80, broth-dilution microtiter): 3.12 µg/mL (≈ 3.25 µM)
MIC ([12]; Pasteurella multocida 17E, bovine isolate, broth-dilution microtiter): 12.5 µg/mL (≈ 13 µM)
MIC ([13]; Pasteurella multocida 60A, avian isolate, broth-dilution microtiter): 12.5 µg/mL (≈ 13 µM)
MIC ([14]; Pasteurella hemolytica 22C, broth-dilution microtiter): 12.5 µg/mL (≈ 13 µM)
MIC (Mycoplasma gallisepticum; Mycoplasma gallisepticum, broth-dilution microtiter): 0.39 µg/mL (≈ 0.406 µM)
MIC (Mycoplasma synoviae; Mycoplasma synoviae, broth-dilution microtiter): 0.195 µg/mL (≈ 0.203 µM)
MIC (Mycoplasma hyorhinis; Mycoplasma hyorhinis, broth-dilution microtiter): 25 µg/mL (≈ 26 µM)
ED50, Oral ([15]; oral): > 100 mg/kg × 2
ED50, Subcutaneous ([15]; subcutaneous): > 25 mg/kg × 2
